{"source": "patent US6939563B2", "about": "“Non-fermented osmotic laxative and method for treating and preventing colorectal cancers” (Inra-Institut National de la Recherche Agronomique, priority 1998, dated 2005)", "key": {"[1]": {"system": "colon carcinogenesis in rats", "assay": "Wargovich et al. Int. J. Cancer 1995 (Ref 12): AOM, then 4 wks, then agent 4 wks", "format": "in vivo, rat", "conditions": "Ref 12 (Piroxicam line prints Ref 8); from published data", "source_text": "(§1) Each value is the ratio between the value in the controls given a carcinogenic substance and the value found in animals treated with a preventive agent before or after the carcinogenic substance. The higher the value the greater the effectiveness of the agent.\n(§2) The results given in Table 4 were established on the basis of published data indicated in references 2 to 12 in Table 5 below."}, "[2]": {"system": "colon carcinogenesis in rats", "conditions": "AOM, then 4 wks, then agent 4 wks, cited from earlier work; for ACF/rat: Aspirin 0.2 g/kg (control 175), Piroxicam 0.2 (control 125), 13 cis Retinoic (control 140); for Large ACF: controls 55 (aspirin), 40 (piroxicam), 57 (retinoic)"}, "[3]": {"system": "colon carcinogenesis in rats", "conditions": "3 x AOM 15 mg/kg, cited from earlier work; for ACF/rat: Hesperidin 1000 ppm (control 89 ± 17), Acetoxychavicol acet 100 ppm (control 118 ± 28), Auraptene (control 157 ± 21); for Crypt/ACF: controls 2.77 (Hesperidin), 2.54 (Acetoxychavicol acet), 2.91 (Auraptene)"}, "[4]": {"system": "colon carcinogenesis in rats", "assay": "Tanaka et al. Carcinogenesis 1997 (Ref 11): ACF induced by 3 x AOM 15 mg/kg", "format": "in vivo, rat", "conditions": "from published data; for n° ACF/rat, ratio controls/treated: Hesperidin 1000 ppp, Auraptene 500 ppm", "source_text": "as §1, §2"}, "[5]": {"system": "colon carcinogenesis in rats", "assay": "Takahashi et al. Carcinogenesis 1997 (Ref 9): ACF induced by 10x PhIP, DHA before each dose", "format": "in vivo, rat", "conditions": "from published data", "source_text": "as §1, §2"}, "[6]": {"system": "colon carcinogenesis in rats", "conditions": "ACF induced by 10x PhIP, DHA 4 h before each dose, cited from earlier work"}, "[7]": {"system": "colon carcinogenesis in rats", "assay": "Takahashi et al. Carcinogenesis 1997 (Ref 10): ACF induced by 20x AOM, DHA with each dose", "format": "in vivo, rat", "conditions": "from published data", "source_text": "as §1, §2"}, "[8]": {"system": "colon carcinogenesis in rats", "conditions": "20x AOM, 1 ml DHA with each dose, 12w, cited from earlier work"}, "[9]": {"system": "colon carcinogenesis in rats", "assay": "Pereira-Khoury Cancer Lett. 1991 (Ref 4): agent wk-1 to +4, 2x15 mg AOM", "format": "in vivo, rat", "conditions": "from published data", "source_text": "as §1, §2"}, "[10]": {"system": "colon carcinogenesis in rats", "conditions": "agent wk-1 to +4, 2x15 mg AOM at wk 0, cited from earlier work; for Crypt/ACF: control 2.59 ± 0.14; for ACF/rat: control 228 ± 32"}, "[11]": {"system": "colon carcinogenesis in rats", "assay": "Pereira et al. Carcinogenesis 1994 (Ref 5): agent day 1-35, AOM d. 7 & 14", "format": "in vivo, rat", "conditions": "from published data", "source_text": "as §1, §2"}, "[12]": {"system": "colon carcinogenesis in rats", "conditions": "agent day 1-35, AOM on d. 7 & 14, cited from earlier work; for Crypt/ACF: control 2.04 ± 0.04; for ACF/rat: control 26 ± 2.2"}, "[13]": {"system": "colon carcinogenesis in rats", "conditions": "Vit. D3 10 ppm post DMH for 16 wks, cited from earlier work"}, "[14]": {"system": "colon carcinogenesis in rats", "assay": "Salim et al. Jpn J Cancer Res 88 (Ref 8): Vit. D3 post DMH 16 wks", "format": "in vivo, rat", "conditions": "from published data", "source_text": "as §1, §2"}, "[15]": {"system": "colon carcinogenesis in rats", "conditions": "Inulin 10% for 10 wks, AOM at wk 3 & 4, cited from earlier work"}, "[16]": {"system": "colon carcinogenesis in rats", "assay": "Reddy et al. Carcinogenesis 1997 (Ref 6): inulin 10 wks, AOM wk 3 & 4", "format": "in vivo, rat", "conditions": "from published data", "source_text": "as §1, §2"}}, "note": "Where two headings read alike, the source gives them in different places.", "data": [{"compound": "CC1=C(/C=C/C(C)=C/C=C/C(C)=C\\C(=O)O)C(C)(C)CCC1", "note": "[13 cis retinoic]", "values": [{"measurement": "Large ACF, ratio controls/treated", "setting": "[1]", "result": 1.9}, {"measurement": "n° ACF/rat, ratio controls/treated", "setting": "[1]", "result": 2.0}, {"measurement": "ACF/rat", "setting": "[2]", "result": 70}, {"measurement": "Large ACF", "setting": "[2]", "result": 30}]}, {"compound": "C=C[C@H](OC(C)=O)c1ccc(OC(C)=O)cc1", "note": "[Acetoxychavicol acet.]", "values": [{"measurement": "Large ACF", "setting": "[3]; Acetoxychavicol acet 100 ppm, control 60", "result": 28}, {"measurement": "ACF/rat", "setting": "[3]", "result": "70 ± 10"}, {"measurement": "Crypt/ACF", "setting": "[3]", "result": 2.24}, {"measurement": "n° ACF/rat, ratio controls/treated", "setting": "[4]", "result": 1.7}, {"measurement": "Crypts/ACF, ratio controls/treated", "setting": "[4]", "result": 1.13}, {"measurement": "Large ACF, ratio controls/treated", "setting": "[4]", "result": 2.1}]}, {"compound": "CC(=O)Oc1ccccc1C(=O)O", "note": "[Aspirin]", "values": [{"measurement": "Large ACF, ratio controls/treated", "setting": "[1]", "result": 2.7}, {"measurement": "n° ACF/rat, ratio controls/treated", "setting": "[1]", "result": 1.7}, {"measurement": "ACF/rat", "setting": "[2]", "result": 100}, {"measurement": "Large ACF", "setting": "[2]", "result": 20}]}, {"compound": "CC(C)=CCC/C(C)=C/COc1ccc2ccc(=O)oc2c1", "note": "[Auraptene]", "values": [{"measurement": "n° ACF/rat, ratio controls/treated", "setting": "[4]", "result": 2.3}, {"measurement": "Crypts/ACF, ratio controls/treated", "setting": "[4]", "result": 1.33}]}, {"compound": "CC/C=C\\C/C=C\\C/C=C\\C/C=C\\C/C=C\\C/C=C\\CCC(=O)O", "note": "[DHA]", "values": [{"measurement": "Crypts/ACF, ratio controls/treated", "setting": "[5]", "result": 1.13}, {"measurement": "n° ACF/rat, ratio controls/treated", "setting": "[5]", "result": 2.8}, {"measurement": "Crypts/ACF", "setting": "[6]; control 2.69", "result": 2.39}, {"measurement": "ACF/rat", "setting": "[6]; control 22", "result": 8}, {"measurement": "Crypts/ACF, ratio controls/treated", "setting": "[7]", "result": 1.08}, {"measurement": "Large ACF, ratio controls/treated", "setting": "[7]", "result": 2.0}, {"measurement": "n° ACF/rat, ratio controls/treated", "setting": "[7]", "result": 1.6}, {"measurement": "Crypt/ACF", "setting": "[8]; control 3.2", "result": 2.95}, {"measurement": "Large ACF", "setting": "[8]; control 114", "result": 56}, {"measurement": "ACF/rat", "setting": "[8]; control 308 ± 64", "result": "191 ± 40"}]}, {"compound": "C[C@]12CC[C@H](O)CC1=CC[C@@H]1[C@@H]2CC[C@]2(C)C(=O)CC[C@@H]12", "note": "[Dehydroepiandrosterone]", "values": [{"measurement": "Crypts/ACF, ratio controls/treated", "setting": "[9]", "result": 1.06}, {"measurement": "n° ACF/rat, ratio controls/treated", "setting": "[9]", "result": 1.9}, {"measurement": "Crypt/ACF", "setting": "[10]", "result": "2.44 ± 0.07"}, {"measurement": "ACF/rat", "setting": "[10]", "result": "121 ± 19"}]}, {"compound": "COc1ccc([C@@H]2CC(=O)c3c(O)cc(O[C@@H]4O[C@H](CO[C@@H]5O[C@@H](C)[C@H](O)[C@@H](O)[C@H]5O)[C@@H](O)[C@H](O)[C@H]4O)cc3O2)cc1O", "note": "[Hesperidin]", "values": [{"measurement": "ACF/rat", "setting": "[3]", "result": "34 ± 5"}, {"measurement": "Crypt/ACF", "setting": "[3]", "result": 2.22}, {"measurement": "n° ACF/rat, ratio controls/treated", "setting": "[4]", "result": 2.6}, {"measurement": "Crypts/ACF, ratio controls/treated", "setting": "[4]", "result": 1.25}]}, {"compound": "CC(=O)N[C@@H](CS)C(=O)O", "note": "[N-acetylcysteine]", "values": [{"measurement": "Crypts/ACF, ratio controls/treated", "setting": "[9]", "result": 1.10}, {"measurement": "n° ACF/rat, ratio controls/treated", "setting": "[9]", "result": 1.5}, {"measurement": "Crypt/ACF", "setting": "[10]", "result": "2.35 ± 0.07"}, {"measurement": "ACF/rat", "setting": "[10]", "result": "151 ± 21"}]}, {"compound": "CN1C(C(=O)Nc2ccccn2)=C(O)c2ccccc2S1(=O)=O", "note": "[Piroxicam]", "values": [{"measurement": "Crypts/ACF, ratio controls/treated", "setting": "[11]", "result": 1.10}, {"measurement": "n° ACF/rat, ratio controls/treated", "setting": "[11]", "result": 1.6}, {"measurement": "Crypt/ACF", "setting": "[12]", "result": "1.84 ± 0.1"}, {"measurement": "ACF/rat", "setting": "[12]", "result": "16 ± 2.8"}, {"measurement": "Large ACF, ratio controls/treated", "setting": "[1]", "result": 8}, {"measurement": "n° ACF/rat, ratio controls/treated", "setting": "[1]", "result": 2.8}, {"measurement": "ACF/rat", "setting": "[2]", "result": 45}, {"measurement": "Large ACF", "setting": "[2]", "result": 5}]}, {"compound": "CC1=C(CC(=O)O)c2cc(F)ccc2/C1=C\\c1ccc([S+](C)[O-])cc1", "note": "(centres unmarked) [Sulindac]", "values": [{"measurement": "Crypts/ACF, ratio controls/treated", "setting": "[11]", "result": 1.10}, {"measurement": "n° ACF/rat, ratio controls/treated", "setting": "[11]", "result": 1.7}, {"measurement": "Crypt/ACF", "setting": "[12]", "result": "1.82 ± 0.14"}, {"measurement": "ACF/rat", "setting": "[12]", "result": "15 ± 3.2"}]}, {"compound": "C=C1CC[C@H](O)C/C1=C/C=C1\\CCC[C@]2(C)[C@@H]([C@H](C)CCCC(C)C)CC[C@@H]12", "note": "[Vit. D3]", "values": [{"measurement": "Large ACF", "setting": "[13]; control 120", "result": 66}, {"measurement": "ACF/rat", "setting": "[13]; control 352", "result": 269}, {"measurement": "Large ACF, ratio controls/treated", "setting": "[14]", "result": 1.8}, {"measurement": "n° ACF/rat, ratio controls/treated", "setting": "[14]", "result": 1.3}]}, {"compound": "Inulin", "values": [{"measurement": "Large ACF", "setting": "[15]; control 56", "result": 39}, {"measurement": "ACF/rat", "setting": "[15]; control 120", "result": 78}, {"measurement": "Large ACF, ratio controls/treated", "setting": "[16]", "result": 1.4}, {"measurement": "n° ACF/rat, ratio controls/treated", "setting": "[16]", "result": 1.5}]}, {"compound": "Oxothiazolidine", "values": [{"measurement": "Crypts/ACF, ratio controls/treated", "setting": "[9]", "result": 1.09}, {"measurement": "n° ACF/rat, ratio controls/treated", "setting": "[9]", "result": 1.9}, {"measurement": "Crypt/ACF", "setting": "[10]", "result": "2.38 ± 0.08"}, {"measurement": "ACF/rat", "setting": "[10]", "result": "121 ± 11"}]}]}
